Results: patent publication US7659289B2, “Hydroxyethylene-based β-secretase inhibitors and use thereof” (CoMentis, Inc., priority 2004, dated 2010)
pIC50, pKi: −log10 of the molar value.

Assays:
memapsin 2 = memapsin 2 (Homo sapiens, UniProt P56817); assay: Inhibition of memapsin 2 beta-secretase activity toward fluorogenic substrate FS-2; format: biochemical; conditions: pH 4, 37° C., 20 minutes pre-incubation, fluorogenic substrate FS-2, tight-binding model; read-out: M2 Ki
Memapsin 1 = biological target: T1, Memapsin 1 (Homo sapiens, UniProt Q9Y5Z0); assay: Inhibition of memapsin 1 beta-secretase activity (MALDI-TOF, substrate peptide […]); format: biochemical; conditions: pH 4.1, 37 degrees C., read-out: M1 Ki
T1 sequence (Q9Y5Z0 63-473 limits assumed): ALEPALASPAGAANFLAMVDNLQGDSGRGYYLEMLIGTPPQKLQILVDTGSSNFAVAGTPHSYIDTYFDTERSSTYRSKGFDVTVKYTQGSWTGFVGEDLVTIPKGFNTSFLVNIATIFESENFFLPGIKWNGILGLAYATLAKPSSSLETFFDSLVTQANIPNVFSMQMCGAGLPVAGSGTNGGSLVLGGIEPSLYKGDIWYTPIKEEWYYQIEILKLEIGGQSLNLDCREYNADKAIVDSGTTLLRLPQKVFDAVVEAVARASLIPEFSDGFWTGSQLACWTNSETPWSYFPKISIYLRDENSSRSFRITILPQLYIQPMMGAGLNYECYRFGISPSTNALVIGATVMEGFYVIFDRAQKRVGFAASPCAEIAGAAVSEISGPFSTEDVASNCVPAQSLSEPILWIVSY

Cathepsin D = Cathepsin D (Homo sapiens, UniProt P07339); assay: Inhibition of cathepsin D activity (MALDI-TOF, substrate peptide […]); format: biochemical; conditions: pH 4.1, 37 degrees C., read-out: Cath D Ki
Aβ production = assay: Cellular Aβ IC50 determination (Aβ40 sandwich ELISA); format: cell-based; conditions: Cricetulus griseus; Aβ40, Chinese hamster ovary cells over-expressing human APP695 with London and Swedish mutations, 24 h incubation
Method: The potency of compounds against memapsin 2 activity was determined in a cellular assay of Aβ production. […] Chinese hamster ovary cells that over-express human APP695 with the London and Swedish mutations were seeded in multi-well plates at 10% confluency. Compounds were dissolved in DMSO to concentrations near 1 mM, and diluted into culture media to a final concentration near 4 μM (final 0.4% DMSO). Compounds were diluted serially and applied to cells in multi-well plates 48 h after seeding. Incubation was continued in 5% CO2 at 37 degrees C. for 24 h. Aliquots were removed and assayed for Aβ40 content using a sandwich ELISA (BioSource International). Amount of Aβ40 over the range of concentration of compounds, relative to control incubations, were fit to a 4-parameter IC50 model.

Chain of Cathepsin D (P07339 65-412, species assumed): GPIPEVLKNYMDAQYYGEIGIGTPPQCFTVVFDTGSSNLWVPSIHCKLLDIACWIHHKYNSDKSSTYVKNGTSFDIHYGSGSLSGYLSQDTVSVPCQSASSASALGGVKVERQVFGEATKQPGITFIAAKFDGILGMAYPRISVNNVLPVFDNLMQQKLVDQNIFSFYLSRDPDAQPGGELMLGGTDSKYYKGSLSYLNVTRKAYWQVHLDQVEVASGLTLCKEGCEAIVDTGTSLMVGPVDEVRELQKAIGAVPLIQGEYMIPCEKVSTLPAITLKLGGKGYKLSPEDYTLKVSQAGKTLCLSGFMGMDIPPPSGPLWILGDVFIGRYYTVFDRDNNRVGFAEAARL
Chain of memapsin 2 (P56817 46-501): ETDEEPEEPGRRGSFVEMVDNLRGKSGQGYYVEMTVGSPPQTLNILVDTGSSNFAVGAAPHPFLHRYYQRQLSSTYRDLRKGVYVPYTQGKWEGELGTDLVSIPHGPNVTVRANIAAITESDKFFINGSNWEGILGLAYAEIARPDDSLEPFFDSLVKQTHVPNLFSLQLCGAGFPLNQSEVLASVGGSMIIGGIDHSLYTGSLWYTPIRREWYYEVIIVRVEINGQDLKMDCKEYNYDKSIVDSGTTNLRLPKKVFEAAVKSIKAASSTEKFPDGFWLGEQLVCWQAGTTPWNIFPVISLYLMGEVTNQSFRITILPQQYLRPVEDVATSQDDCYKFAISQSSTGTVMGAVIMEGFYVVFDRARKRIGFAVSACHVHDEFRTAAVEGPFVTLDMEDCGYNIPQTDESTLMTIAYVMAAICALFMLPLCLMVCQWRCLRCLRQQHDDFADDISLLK

SMILES	pKi (memapsin 2)	pKi (Memapsin 1)	pKi (Cathepsin D)	pIC50 (Aβ production)
Cc1csc(CNC(=O)C[C@H](NC(=O)OC(C)(C)C)C(=O)N[C@@H](CC(C)C)[C@@H](O)C[C@@H](C)C(=O)N[C@H](C(=O)NCC(C)C)C(C)C)n1 [tert-butyl (5S,8S,9S,11R,14S)-9-hydroxy-8-isobutyl-14-isopropyl-11,18-dimethyl-1-(4-methylthiazol-2-yl)-3,6,12,15-tetraoxo-2,7,13,16-tetraazanonadecan-5-ylcarbamate]	6.22 to 7.00	< 6.22		
Cc1csc(COC(=O)N[C@@H](CNC(=O)OC(C)(C)C)C(=O)N[C@@H](CC(C)C)[C@@H](O)C[C@@H](C)C(=O)N[C@H](C(=O)NCC(C)C)C(C)C)n1	6.22 to 7.00	6.22 to 7.00	6.22 to 7.00	< 4.00
CC[C@H](C[C@H](O)[C@H](CC(C)C)NC(=O)[C@H](CNC(=O)OC(C)(C)C)NC(=O)[C@@H](C)Cc1nc(C)cs1)C(=O)N[C@H](C(=O)NCC(C)C)C(C)C [tert-butyl (S)-3-((4S,5S,7R)-5-hydroxy-7-((S)-1-(isobutylamino)-3-methyl-1-oxobutan-2-ylcarbamoyl)-2-methylnonan-4-ylamino)-2-((S)-2-methyl-3-(4-methylthiazol-2-yl)propanamido)-3-oxopropylcarbamate]	> 7.00		> 7.00	> 5.22
Cc1csc(C[C@H](C)C(=O)N[C@@H](CNC(=O)OC(C)(C)C)C(=O)N[C@@H](CC(C)C)[C@@H](O)C[C@@H](C)C(=O)N[C@H](C(=O)NN(C)C)C(C)C)n1 [tert-butyl (S)-3-((4S,5S,7R)-8-((S)-1-(2,2-dimethylhydrazinyl)-3-methyl-1-oxobutan-2-ylamino)-5-hydroxy-2,7-dimethyl-8-oxooctan-4-ylamino)-2-((S)-2-methyl-3-(4-methylthiazol-2-yl)propanamido)-3-oxopropylcarbamate]	> 7.00		6.22 to 7.00	> 5.22
CC[C@@H](Cc1nc(C)cs1)C(=O)N[C@@H](CNC(=O)OC(C)C)C(=O)N[C@@H](CC(C)C)[C@@H](O)C[C@@H](C)C(=O)N[C@H](C(=O)NCC(C)C)C(C)C [isoproyl (S)-3-((4S,5S,7R)-5-hydroxy-8-((S)-1-(isobutylamino)-3-methyl-1-oxobutan-2-ylamino)-2,7-dimethyl-8-oxooctan-4-ylamino)-2-((S)-2-((4-methylthiazol-2-yl)methyl)butanamido)-3-oxopropylcarbamate]	> 7.00		> 7.00	> 5.22
COC(=O)NC[C@H](NC(=O)OCc1nc(C)cs1)C(=O)N[C@@H](CC(C)C)[C@@H](O)C[C@@H](C)C(=O)N[C@H](C(=O)NCC(C)C)C(C)C	> 7.00	> 7.00	> 7.00	> 5.22
Cc1csc(C[C@H](C)C(=O)N[C@@H](CNC(=O)OC(C)(C)C)C(=O)N[C@@H](Cc2ccccc2)[C@@H](O)C[C@@H](C)C(=O)N[C@H](C(=O)NCC(C)C)C(C)C)n1 [tert-butyl (S)-3-((2S,3S,5 R)-3-hydroxy-6-((S)-1-(isobutylamino)-3-methyl-1-oxobutan-2-ylamino)-5-methyl-6-oxo-1-phenylhexan-2-ylamino)-2-((S)-2-methyl-3-(4-methylthiazol-2-yl)propanamido)-3-oxopropylcarbamate]	> 7.00		> 7.00	4.00 to 5.22
CC[C@@H](Cc1nc(C)cs1)C(=O)N[C@@H](CNC(=O)OC(C)(C)C)C(=O)N[C@@H](CC(C)C)[C@@H](O)C[C@@H](C)C(=O)N[C@H](C(=O)NCC(C)C)C(C)C [tert-butyl (S)-3-((4S,5S,7R)-5-hydroxy-8-((S)-1-(isobutylamino)-3-methyl-1-oxobutan-2-ylamino)-2,7-dimethyl-8-oxooctan-4-ylamino)-2-((S)-2-((4-methylthiazol-2-yl)methyl)butanamido)-3-oxopropylcarbamate]	> 7.00		> 7.00	> 5.22
Cc1cc(C)n(CC(N)C(=O)N[C@@H](CNC(=O)OC(C)(C)C)C(=O)N[C@@H](CC(C)C)[C@@H](O)C[C@@H](C)C(=O)N[C@H](C(=O)NCC(C)C)C(C)C)n1 (stereo partly drawn) [tert-butyl (2S)-2-(2-amino-3-(3,5-dimethyl-1H-pyrazol-1-yl)propanamido)-3-((4S,5S,7R)-5-hydroxy-8-((S)-1-(isobutylamino)-3-methyl-1-oxobutan-2-ylamino)-2,7-dimethyl-8-oxooctan-4-ylamino)-3-oxopropylcarbamate]	6.22 to 7.00		6.22 to 7.00	< 4.00
Cc1csc(CNC(=O)C[C@@H](NC(=O)OC(C)(C)C)C(=O)N[C@@H](CC(C)C)[C@@H](O)C[C@@H](C)C(=O)N[C@H](C(=O)NCC(C)C)C(C)C)n1 [tert-butyl (5R,8S,9S,11 R,14S)-9-hydroxy-8-isobutyl-14-isopropyl-11,18-dimethyl-1-(4-methylthiazol-2-yl)-3,6,12,15-tetraoxo-2,7,13,16-tetraazanonadecan-5-ylcarbamate]	> 7.00	6.22 to 7.00		

Next, values leading:

pKi (memapsin 2)	pKi (Memapsin 1)	pKi (Cathepsin D)	pIC50 (Aβ production)	SMILES
6.22 to 7.00	6.22 to 7.00	6.22 to 7.00	4.00 to 5.22	Cc1csc(COC(=O)N[C@@H](CNC(=O)O[C@H]2CCOC2)C(=O)N[C@@H](CC(C)C)[C@@H](O)C[C@@H](C)C(=O)N[C@H](C(=O)NCC(C)C)C(C)C)n1
> 7.00	6.22 to 7.00	6.22 to 7.00	< 4.00	Cc1csc(COC(=O)N[C@@H](CNS(C)(=O)=O)C(=O)N[C@@H](CC(C)C)[C@@H](O)C[C@@H](C)C(=O)N[C@H](C(=O)NCC(C)C)C(C)C)n1
> 7.00	6.22 to 7.00	> 7.00	> 5.22	Cc1csc(C[C@H](C)C(=O)N[C@@H](CNC(=O)OC(C)(C)C)C(=O)N[C@@H](CC(C)C)[C@@H](O)C[C@@H](C)C(=O)N[C@H](C(=O)NCC(C)C)C(C)C)n1 [tert-butyl (S)-3-((4S,5S,7R)-5-hydroxy-8-((S)-1-(isobutylamino)-3-methyl-1-oxobutan-2-ylamino)-2,7-dimethyl-8-oxooctan-4-ylamino)-2-((S)-2-methyl-3-(4-methylthiazol-2-yl)propanamido)-3-oxopropylcarbamate]
> 7.00		> 7.00	> 5.22	Cc1csc(C[C@H](C)C(=O)N[C@@H](CNC(=O)O[C@@H]2CCOC2)C(=O)N[C@@H](CC(C)C)[C@@H](O)C[C@@H](C)C(=O)N[C@H](C(=O)NCC(C)C)C(C)C)n1 [(R)-tetrahydrofuran-3-yl (S)-3-((4S,5S,7R)-5-hydroxy-8-((S)-1-(isobutylamino)-3-methyl-1-oxobutan-2-ylamino)2,7-dimethyl-8-oxooctan-4-ylamino)-2-((S)-2-methyl-3-(4-methylthiazol-2-yl)propanamido)-3-oxopropylcarbamate]
> 7.00		> 7.00	> 5.22	COC(=O)NC[C@H](NC(=O)[C@@H](C)Cc1nc(C)cs1)C(=O)N[C@@H](CC(C)C)[C@@H](O)C[C@@H](C)C(=O)N[C@H](C(=O)NCC(C)C)C(C)C [methyl (S)-3-((4S,5S,7R)-5-hydroxy-8-((S)-1-(isobutylamino)-3-methyl-1-oxobutan-2-ylamino)-2,7-dimethyl-8-oxooctan-4-ylamino)-2-((S)-2-methyl-3-(4-methylthiazol-2-yl)propanamido)-3-oxopropylcarbamate]
> 7.00		> 7.00	4.00 to 5.22	CCC(Cn1nc(C)cc1C)C(=O)N[C@@H](CNC(=O)OCCF)C(=O)N[C@@H](CC(C)C)[C@@H](O)C[C@@H](C)C(=O)N[C@H](C(=O)NCC(C)C)C(C)C (stereo partly drawn) [2-fluoroethyl (2S)-2-(2-((3,5-dimethyl-1H-pyrazol-1-yl)methyl)butanamido)-3-((4S,5S,7R)-5-hydroxy-8-((S)-1-(isobutylamino)-3-methyl-1-oxobutan-2-ylamino)-2,7-dimethyl-8-oxooctan-4-ylamino)-3-oxopropylcarbamate]
